“And” between values parts separate entries of the source, which are not always exact repeats. Equal entries are not always repeated. “Also recorded” adds a separate entry of the source. Where two headings read alike, the source gives them in different places.
Experiments:
[1] = tested on: human acetylcholine receptor M3R subtype; experiment: GRAB-ACh sensor fluorescence response to ACh, drug perfusion in HEK293T cells; assay type: cell-based
Protocol: After DNA encoding specific GRAB sensor was introduced into cells by transfection, fluorescence imaging combined with perfusion experiment was. The imaging capture of HEK293T cells was performed using an Olympus IX81 inverted microscope, 40×NA: 1.35 oil lens, 475/28 excitation light filter, and 515LP emission light filter. The optical signal was collected by a Zyla sCMOS DG-152V-Cle FI camera (Andor), and Lambda DG-4 from Sutter Instuments company was used as a fluorescent light source. The exposure time was set to less than 50 ms and the acquisition frequency was 5 seconds. The entire imaging system was overall controlled by micromanager software.
The detection of the response of the GRAB sensor to the ligand (ΔF/F0) was performed using a drug perfusion method. The cells were placed in a standard physiological solution, and the formula thereof is: […]
The pH of the physiological solution was adjusted to about 7.4, and the small molecule drug was diluted with a part of the physiological solution to formulate solutions of respective concentrations of the small molecule ligand. […] Unless explicitly specified, the concentration of isoproterenol (ISO) for perfusion was 2 μM, and the concentration of acetylcholine for perfusion was 100 μM.
The perfusion system was equipped on a microscope, including a solution-introduced system made of syringe for injection, a multi-way valve, an imaging workbench and a suction pump. During the perfusion process, the imaging workbench was placed above the objective lens of the inverted microscope, and then the slide on which cell plated were placed in the workbench. Perfusion of different drugs were performed by controlling the switches of different pipes. In order to control the level of the solution in the workbench, the perfusion speed was set to one drop or so per second. After each drug treatment, the cells were washed with a physiological solution for more than five minutes to ensure that there were no residual drugs that will affect subsequent experiments. After the end of each experiment, the perfusion pipe and the workbench were cleaned with 75% ethanol three times to ensure that the residual drugs and impurities were fully washed away.
Fluorescence imaging data was processed using ImageJ software. For the performance of GRAB sensors in HEK293T cells and neurons, the fluorescence of entire cell body was selected as the data processing region. For living Drosophila imaging, fluorescence images on the same Z axis were analyzed by ImageJ software. The change in the fluorescence signal was indicated by its relative difference. The signal of background area without the expression of the sensor was first subtracted from the fluorescence signal, so as to obtain the real expression of the intensity of the fluorescent protein. Then, by calculating the fluorescence value F after adding the drug and the average fluorescence value F0 before adding, the relative fluorescence change ΔF/F=(F−F0)/F0 was obtained as the fluorescence response of the sensor to a specific drug. The change of ΔF/F0 with time was further plotted by Origin 8.6 software.
Based on GRAB-ACh 1.0, this peptide linker was optimized. First, based on a flexible amino acid (glycine, alanine), the peptide segment was screened for optimal length. The specific strategy was to change the length of the peptide linkers at the N-terminus and C-terminus from 0 to 5 amino acids, respectively, and to randomly combine the N-terminus with C-terminus to obtain all possible permutations. Fusion protein expression vectors containing various arrangements were expressed in HEK293T cells and subjected to perfusion experiments.

human HTR2C receptor = assay type: cell-based; settings: for agonist-induced change of GRAB-5-HT2.1 fluorescence signal: GRAB-5-HT2.1 in HEK293T cells; for antagonism of serotonin-induced increase of GRAB-5-HT2.1 fluorescence signal: antagonist added after serotonin
human ADRA2A receptor = assay type: cell-based
Protocol: The perfusion system was set on a microscope, and including a solution-introduced system, an imaging cell, and a suction pump. During the perfusion process, the imaging cell was placed above the objective lens of the inverted microscope, and the slide with cultured cells was placed in the cell. The perfusion experiments of different drugs were performed by controlling the switches of the different pipes of the solution-introduced system. The perfusion speed was set to one drop or so per second. In order to ensure the stability of the focal plane, the liquid level was kept constant at all times, and the flow rate of each solution was adjusted accordingly. The aspiration speed was adjusted to maintain the liquid level in the cell over the slide.
The region of interest (ROI) and background area were selected manually prior to the perfusion experiment. The exposure time was set to less than 50 ms and the acquisition frequency was 5 seconds. The solution used for the perfusion was a physiological solution 4k (pH 7.3-7.4), which was used to formulate the drug to the desired concentration. The running time of the program was set to no more than 5 min. After using 4k to balance and stabilize the cells for about 60-90 s, the cells were perfused with drug for 60 s, and then washed with 4k. The excitation light for green fluorescent protein was 488 nm, and for red fluorescent protein was 568 nm. The laser intensity was adjusted according to the working state of the laser and the expression level of the cells.
After the end of the program, the time-fluorescence intensity data sheet was exported. The background was subtracted from the ROI to get the corresponding fluorescence value Ft, and the average value of the fluorescence value before adding the drug was used as the starting fluorescence F0 to calculate
The detection of the response of the GRAB sensor to the ligand (ΔF/F0) was performed by drug perfusion. The cells were maintained in a standard physiological solution, and the formula thereof is: […]
Fluorescence imaging data was processed using ImageJ software. For the fluorescence performance of GRAB sensors in HEK293T cells and neurons, the entire cell body was selected as the data processing region. The change in the fluorescence signal was usually indicated by its relative intensity change. The background area without the expression of the sensor was first subtracted from the fluorescence signal, so as to obtain the true expression intensity of the fluorescent protein.

human DRD2 receptor = experiment: GRAB-GDA3.0 fluorescence response in HEK293T cells, drug perfusion; assay type: cell-based
Description: There are 5 subtypes of human dopamine receptors in the body, which are named DRD1-DRD5. For constructing a fluorescent sensor, the receptors were screened preliminarily by inserting a fluorescent protein at any position in the third intracellular loop of the receptor. […] Specifically, for the third intracellular loop of the human DRD2 receptor, the insertion sites were set every 15 amino acids. Human DRD2 receptors inserted with circular permutated fluorescent proteins at different positions were expressed in HEK293T cells, and drug perfusion experiments were conducted with dopamine. […] After the positions sensitive to conformational change were determined, the surrounding amino acid sites thereof were further screened. The sites surrounding the amino acid position 252 at N-terminus and the sites surrounding the amino acid position 357 at the C-terminus were combined and different sensors were constructed. The sensors were expressed in HEK293T cells and subjected to drug perfusion experiments with dopamine. […] The peptide linkers were GG at the N-terminus and GGAAA at the C-terminus.

[2] = tested on: GRAB-GDA3.0 signal in mushroom body (MB); experiment: Odor-stimulated GRAB-GDA3.0 signal in mushroom body, in vivo two-photon imaging; parameters: species or system Drosophila; settings: 10 μM antagonist in imaging solution, n=6
Protocol: Drosophila were kept in a 25-degree incubator with a standard medium. […] The adult Drosophila to be tested were transferred to a new culture tube within 0-2 days after emergence, and left at room temperature for 8-12 days. Before the imaging, the Drosophila were first fixed in a small dish, and then the square skull part near the eye was surgically removed to expose part of the brain. The adipose tissue and air sacs near the antennal lobes to be imaged were surgically removed to prevent interference with the fluorescent signal. In order to further reduce the degradation of image quality caused by the movement of Drosophila during the imaging, surgical forceps were used to cut the muscles underneath its halter. Throughout the dissection and imaging procedures, the brain of Drosophila was kept in a pre-chilled physiological solution, and the formula thereof is as follows: […]
Drosophila imaging was performed using an Olympus two-photon microscope, including Olympus BX61 WI microscope, 25×NA: 1.05 water lens, and Ti:Sapphire laser mode-locked laser for two-photon excitation. For GRAB sensor imaging experiments, the wavelength of the […] was set to 950 nm in order to successfully excite the fluorescent protein to produce fluorescence. The odor molecule isoamyl acetate (IA) used for stimulating Drosophila was purchased from Sigma, and was diluted in mineral oil at a ratio of 1:100. In the experiment, the isoamyl acetate was further diluted 5-40 times by mixing with air. The air mixed with odor molecules was provided at a position about 1 cm away from the tentacles of the Drosophila through a cavity about 1 cm wide on the experimental table. The odor molecule of different concentrations was tested by controlling the airflow. Each imaging cycle was 17.8 seconds, of which 5 to 10 seconds was the time for providing specific odor molecules. After the imaging experiment for odor function, the imaging area was scanned layer by layer with high resolution setting to obtain the distribution information of the olfactory bulb, which was later identified based on the information of olfactory bulb distribution at the antennal lobe reported in the literature.
The transgenic Drosophila UAS-GRAB-GDA3.0 was constructed to express the GRAB-GDA3.0 sensor in specific cells, driven by the corresponding GAL4 strain. First, GRAB-GDA3.0 was expressed in dopaminergic neurons (DAN) in all Drosophila, and the response induced by odor (isoamyl acetate) was examined by in vivo two-photon imaging (FIG. 39A).
A pharmacological study was performed on GRAB-GDA3.0.
The rate of GDA signal attenuation between normal Drosophila and Drosophila with reduced DAT expression was compared (this is the experiment of gene level research using DAT-RNAi described later). In DAN, the dopamine transporter (DAT) is located in the presynaptic membrane and […] DA intermittently and cyclically from the synapse. DAT-RNAi was used to inhibit DAT expression in DAN (FIG. 40G).

[3] = tested on: human acetylcholine receptor M3R subtype; experiment: GRAB-ACh 2.0 kinetics, rapid local perfusion with high-speed line scanning; assay type: cell-based
Protocol: For the detection of GRAB sensor kinetics, a local drug delivery system was used for the experiment. The experiment was performed using an Olympus upright microscope BX51, wherein a 40×NA: 0.80 water lens was used for imaging, and a 710M camera (DVC) was used for image acquisition. The drug delivery system was controlled by ROE-200 (from Sutter instruments company), and the position of the drug delivery needle was controlled by the MPS-1 operating lever. For the dynamic characterization experiment of the sensor, the imaging was processed using a frequency of 50 HZ (with a resolution of 768×484 pixels) and a surface element partition of 2×2.
The Journal of pharmacology and experimental therapeutics 330, 660-668 (2009)) reduced the fluorescence signal in GRAB-ACh 2.0 expressing cells perfused with 100 μM ACh, with a smaller time constant of 762±75 ms (FIGS. 14b-c, right panel).
Target sequence in this assay (as listed by the source): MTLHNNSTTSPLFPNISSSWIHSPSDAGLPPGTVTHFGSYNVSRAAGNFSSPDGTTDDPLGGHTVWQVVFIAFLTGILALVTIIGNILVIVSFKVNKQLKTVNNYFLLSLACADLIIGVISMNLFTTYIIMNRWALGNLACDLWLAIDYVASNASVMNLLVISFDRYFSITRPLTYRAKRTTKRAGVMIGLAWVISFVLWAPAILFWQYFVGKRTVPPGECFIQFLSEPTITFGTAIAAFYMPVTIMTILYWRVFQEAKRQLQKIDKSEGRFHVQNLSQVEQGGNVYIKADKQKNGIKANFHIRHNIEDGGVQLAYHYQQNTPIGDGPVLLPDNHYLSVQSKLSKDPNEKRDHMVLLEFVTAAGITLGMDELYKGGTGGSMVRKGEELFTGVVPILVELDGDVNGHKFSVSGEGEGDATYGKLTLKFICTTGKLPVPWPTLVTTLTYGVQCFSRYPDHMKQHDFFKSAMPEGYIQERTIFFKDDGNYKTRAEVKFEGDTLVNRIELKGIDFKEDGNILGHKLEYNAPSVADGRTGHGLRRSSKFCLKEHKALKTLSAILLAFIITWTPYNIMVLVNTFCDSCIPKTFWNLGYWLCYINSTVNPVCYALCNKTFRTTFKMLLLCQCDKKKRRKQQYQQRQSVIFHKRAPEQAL

CCCN(CCC)CC1CCCCN1CCNC(=O)N1c2ccccc2C(=O)Nc2cccnc21 (centres unmarked) [AF-DX384]
effect of M3R antagonist on ACh-induced increase of fluorescence ([1]; GRAB-ACh 2.0 in HEK293T cell): completely blocked

CC(N)Cc1c[nH]c2ccc(OCc3cccs3)cc12 (centres unmarked) [BWT23C83]
agonist-induced change of GRAB-5-HT2.1 fluorescence signal (human HTR2C receptor): cannot cause the change; also recorded: cannot change the fluorescent signal

CN1CCN(c2nc3cc(C(F)(F)F)ccc3n3cccc23)CC1.O=C(O)/C=C\C(=O)O.O=C(O)/C=C\C(=O)O [CGS12066B]
agonist-induced change of GRAB-5-HT2.1 fluorescence signal (human HTR2C receptor): cannot cause the change; also recorded: cannot change the fluorescent signal

Clc1cccc(COc2cncc(N3CCNCC3)n2)c1 [CP809]
agonist-induced change of GRAB-5-HT2.1 fluorescence signal (human HTR2C receptor): can cause the fluorescence signal change; also recorded: can induce changes in fluorescent signal

CNC[C@H](O)c1ccc(O)c(O)c1 [Epi, Epinephrine]
activation of GRAB-NE2.1 fluorescence signal by ligand (human ADRA2A receptor): can activate
fluorescent signal change of GRAB-NE2.0 to ligand (human ADRA2A receptor): exhibits a fluorescent signal change

Nc1nc2c(ncn2[C@@H]2O[C@H](COP(=O)(O)OP(=O)(O)OP(O)(O)=S)[C@@H](O)[C@H]2O)c(=O)[nH]1 [GTPγS]
effect of Gαi inhibition on concentration-dependent curve of GRAB-NE2.0 to NE (human ADRA2A receptor; PTX co-transfection or GTPγS with digitonin): did not change the concentration-dependent curve

O=C(CCCN1CCC(O)(c2ccc(Cl)cc2)CC1)c1ccc(F)cc1 [Haloperidol]
activation or block of GRAB-GDA3.0 (human DRD2 receptor): blocked; also recorded: inhibited
effect on odor (IA)-stimulated GDA signal in MB β' lobe ([2]; listed as halo): can be blocked
effect on odor (IA)-stimulated GDA signal in MB β' lobe ([2]; listed as haloperidol): completely blocked

CC(C)NCC(O)c1ccc(O)c(O)c1 (centres unmarked) [ISO, Isoproterenol]
fluorescent signal change of GRAB-NE2.0 to ligand (human ADRA2A receptor; GRAB-NE2.0, saturated concentration): no response
activation of GRAB-NE2.1 fluorescence signal by ligand (human ADRA2A receptor; cells expressing GRAB-NE2.1): cannot

NC[C@H](O)c1ccc(O)c(O)c1 [NE, Norepinephrine]
activation of GRAB-NE2.1 fluorescence signal by ligand (human ADRA2A receptor): can activate
fluorescent signal change of GRAB-NE2.0 to ligand (human ADRA2A receptor): exhibits a fluorescent signal change

COc1cc(OC)c(C(=O)CCCCN2CCC3(CC2)NC(=O)NC3=O)cc1NS(=O)(=O)c1ccc(C(F)(F)F)cc1 [RS102221]
antagonism of serotonin-induced increase of GRAB-5-HT2.1 fluorescence signal (human HTR2C receptor): can antagonize; also recorded: can inhibit

Cc1cc(NC(=O)Nc2ccc3c(ccn3C)c2)sn1 [SB204741]
antagonism of serotonin-induced increase of GRAB-5-HT2.1 fluorescence signal (human HTR2C receptor): cannot antagonize; also recorded: failed to inhibit

NCCc1ccc(O)c(O)c1 [dopamine, Dopamine]
activation or block of GRAB-GDA3.0 (human DRD2 receptor; HEK293T cells): activated

NC1=NCC2c3ccccc3Cc3ccccc3N12 (centres unmarked) [epinastine]
effect on odor (IA)-stimulated GDA signal in MB β' lobe [2]: cannot be blocked; also recorded: failed to be blocked

GRAB-ACh 2.0: GRAB-ACh variant with GG-APSVA peptide linkers, SEQ ID NO: 16
ΔF/F0 peak response ([1]; 100 μM ACh perfusion, HEK293T cells): ~100% and 90.12±1.74% and 94.0±3.0% and 90%
EC50 ([1]; ACh 10 nM to 100 μM, Boltzmann fit, n=4): ~700 nM
ΔF/F0 response ([1]; ACh (100 μM), second round screening, HEK293T cells): ~0.9
pEC50 ([1]; dose-dependent response to ACh): 6.12 ± 0.11
time constant of fluorescence increase ([3]; ACh perfusion, single scan): 185 ms
time constant of fluorescence decrease ([3]; Tio perfusion, single scan): 696 ms
average on time constant ([3]; local ACh perfusion, single exponential fit, n=18): 279.4 ± 32.6 ms and 280 ± 32 ms
average off time constant ([3]; local antagonist perfusion in 100 μM ACh, n=11): 762.3 ± 74.9 ms and 762 ± 75 ms

Reference: patent US20200400567A1, “FUSION POLYPEPTIDE” (PEKING UNIVERSITY, priority 2017, published 2020)
